From paper PMC6943918 (The Biochemical journal, 2014)

Biological target: T1, ZmTenA_E (maize TenA_E, GRMZM2G080501) (Zea mays, UniProt B6TPF2)
T1 sequence (B6TPF2 1-224): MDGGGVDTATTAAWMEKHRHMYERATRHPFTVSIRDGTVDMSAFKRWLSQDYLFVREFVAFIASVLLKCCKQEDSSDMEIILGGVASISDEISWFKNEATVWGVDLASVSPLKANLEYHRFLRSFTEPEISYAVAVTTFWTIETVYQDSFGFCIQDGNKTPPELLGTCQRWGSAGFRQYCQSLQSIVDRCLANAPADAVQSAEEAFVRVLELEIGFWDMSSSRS
Assay: HPLC-UV
Format: biochemical
Settings: amino-HMP aminohydrolase; 100 nmol substrate, 50 μg enzyme, 4 h, 30°C

Cc1ncc(CN)c(N)n1 [Amino-HMP, 4-amino-5-aminomethyl-2-methylpyrimidine]
HPLC-UV (235 nm) hydrolysis assay: both plant TenA_E proteins had some activity against amino-HMP
